Assay results from patent US20080146556A1, “Method of radio-sensitizing tumors using a radio-sensitizing agent” (Cephalon, Inc., priority 2006, published 2008).
Read-outs that look alike come from different tables or passages of the source.

Legend:
recombinant human PARP = recombinant human PARP (Homo sapiens, UniProt P09874); experiment: Measurement of PARP enzymatic activity ([32P]NAD+ transfer to protein acceptor); assay type: biochemical; conditions: 100 μM NAD+
Experimental: PARP activity was monitored by transfer of radiolabeled ADP-ribose units from [^32P]NAD^+ to a protein acceptor such as histone or PARP itself. The assay mixtures contained 100 mM Tris (pH 8.0), 2 mM DTT, 10 mM MgCl2, 20 ug/ml DNA (nicked by sonication), […] histone H1, 5 ng recombinant human PARP, and inhibitor or DMSO (<2.5% (v/v)) in a final volume of 100 uL. The reactions were initiated by the addition of 100 μM NAD^+ supplemented with 2 uCi [^32P]NAD^+/mL and maintained at room temperature for 12 minutes. Assays were terminated by the addition of […] and the radiolabeled precipitate was collected on a 96-well filter plate (Millipore, MADP NOB 50), washed with 25% TCA. The amount of acid-insoluble radioactivity, corresponding to polyADP-ribosylated protein, was quantitated in a Wallac MicroBeta scintillation counter.
Single-point inhibition data were calculated by comparing PARP, VEGFR2, or MLK3 activity in the presence of inhibitor to activity in the presence of DMSO only. Inhibition curves for compounds were generated by plotting percent inhibition versus log10 of the concentration of compound. IC50 values were calculated by nonlinear regression using the sigmoidal dose-response (variable slope) equation in GraphPad Prism as follows:
y=bottom+(top−bottom)/(1+10^(log IC^50^−x)*Hillslope)
where y is the % activity at a given concentration of compound, x is the logarithm of the concentration of compound, bottom is the % inhibition at the lowest compound concentration tested, and top is the % inhibition at the highest compound concentration examined. The values for bottom and top were fixed at 0 and 100, respectively. IC50 values are reported as the average of at least three separate determinations.
Where no IC50 value is represented, data has yet to be determined.

[1] = tested on: U87MG human glioblastoma xenografts; experiment: Initial radio-sensitizing study, non-optimized dosing schedule (7.5 Gy x 3 days, s.c.); assay type: in vivo, nude mice
[2] = tested on: U87MG human glioblastoma xenografts; assay type: in vivo
[3] = tested on: bone marrow and intestinal mucosa; experiment: Bone marrow and jejunal crypt assays for radiation-induced normal tissue toxicity; assay type: in vivo; conditions: Example 7 30 and 100 mg/kg dose equivalents of Example 6 sc plus 2 Gy radiation x 5 days
Experimental: To evaluate therapeutic gain, Example 7 (30 and 100 mg/kg dose equivalents of Example 6 sc) plus 2 Gy radiation×5 days was evaluated in bone marrow and jejunal crypt assays to determine if Example 7 potentiated radiation-induced normal tissue (NT) toxicity.

[4] = tested on: U87MG human glioblastoma xenografts; experiment: Preliminary radio-sensitizing study of orally administered Example 7; assay type: in vivo, nude mice
[5] = Plasma levels of Example 6 at Cmax after s.c. dosing of Example 7 in the radio-sensitization studies; assay type: in vivo, nude mice; conditions: athymic NCR NUM nude, mouse, sc
[6] = Example 7 30 mg/kg s.c. qd x 21 d plus RT 2 Gy x 5 days

Sequence of recombinant human PARP (P09874 whole entry): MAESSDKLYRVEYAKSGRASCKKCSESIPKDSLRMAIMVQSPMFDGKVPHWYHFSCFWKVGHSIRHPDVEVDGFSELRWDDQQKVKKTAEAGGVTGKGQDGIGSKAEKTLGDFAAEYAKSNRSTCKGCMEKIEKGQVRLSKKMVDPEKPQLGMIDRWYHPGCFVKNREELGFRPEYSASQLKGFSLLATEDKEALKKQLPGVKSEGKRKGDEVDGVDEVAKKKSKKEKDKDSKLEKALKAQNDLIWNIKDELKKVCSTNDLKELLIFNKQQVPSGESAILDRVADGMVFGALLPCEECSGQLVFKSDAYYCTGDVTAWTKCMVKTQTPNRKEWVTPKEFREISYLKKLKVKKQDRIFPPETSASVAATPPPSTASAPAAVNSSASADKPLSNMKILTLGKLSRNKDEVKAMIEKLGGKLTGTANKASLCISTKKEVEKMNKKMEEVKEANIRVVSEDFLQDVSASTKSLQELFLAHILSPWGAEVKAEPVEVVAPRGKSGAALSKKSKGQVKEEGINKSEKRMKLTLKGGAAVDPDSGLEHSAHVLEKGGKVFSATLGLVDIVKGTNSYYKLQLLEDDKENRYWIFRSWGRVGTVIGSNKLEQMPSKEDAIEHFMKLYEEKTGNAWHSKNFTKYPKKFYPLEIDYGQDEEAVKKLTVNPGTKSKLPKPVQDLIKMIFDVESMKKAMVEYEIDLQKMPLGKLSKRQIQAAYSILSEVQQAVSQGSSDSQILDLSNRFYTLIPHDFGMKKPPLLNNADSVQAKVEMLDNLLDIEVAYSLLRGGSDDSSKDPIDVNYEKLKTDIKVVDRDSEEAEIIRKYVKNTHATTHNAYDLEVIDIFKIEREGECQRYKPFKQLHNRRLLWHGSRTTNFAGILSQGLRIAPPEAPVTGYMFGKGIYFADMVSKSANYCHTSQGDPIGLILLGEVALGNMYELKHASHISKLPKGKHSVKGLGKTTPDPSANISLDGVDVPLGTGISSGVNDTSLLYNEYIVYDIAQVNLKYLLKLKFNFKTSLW

## COc1cccc2c1c1c3c(c4c(c1n2CN1CCOCC1)CCC4)C(=O)N(CN1CCOCC1)C3=O [Example 9, 7-Methoxy-5,11-(bis-morpholin-4-ylmethyl)-1,2,3,11-tetrahydro-5,11-diaza-benzo[a]trindene-4,6-dione]
Recombinant human PARP
  IC50: < 100 nM

## COc1cccc2[nH]c3c4c(c5c(c3c12)C(=O)N(CN1CCOCC1)C5=O)CCC4 [Example 10, 7-Methoxy-5-(morpholin-4-ylmethyl)-1,2,3,11-tetrahydro-5,11-diaza-benzo[a]trindene-4,6-dione]
Recombinant human PARP
  IC50: < 100 nM

## COc1cccc2[nH]c3c4c(c5c(c3c12)C(=O)N(CN1CCN(C)CC1)C5=O)CCC4 [Example 7, 7-Methoxy-5-(4-methyl-piperazin-1-ylmethyl)-1,2,3,11-tetrahydro-5,11-diaza-benzo[a]trindene-4,6-dione]
Recombinant human PARP
  IC50: < 100 nM
[1]; Example 7 (100 mg/kg s.c. qd) with 7.5 Gy radiation for 3 days, vs vehicle
  tumor growth delay (TGD): 14.8 days
[1]; Example 7 (100 mg/kg s.c. qd) with 7.5 Gy radiation for 3 days, radiation alone 16.1 days
  time for tumors to reach 2000 mm3: 24.8 days
[1]; Example 7 alone, 100 mg/kg dose equivalents of Example 6, s.c., QD for 5 days
  effect on tumor growth as a single agent: no effect on tumor growth
[1]; Example 7 only, 100 mg/kg dose equivalents of Example 6, s.c., QD 5 days, vehicle 10.0 days
  time for tumors to reach a tumor volume of 2000 mm3: 9.6 days
[2]; Example 7 30 mg/kg s.c. qd x 21 d in combination with RT 2 Gy x 5 days
  TGD compared to radiation alone: 15 days
[2]; [6]
  TGD compared to Example 7 alone: 26 days
  fold increase in TGD compared to Example 7 alone: 6 fold
  fold increase in TGD compared to radiation alone: 4 fold
[2]; Example 7 100 mg/kg s.c. with fractionated radiotherapy 2 Gy x 5 days
  anti-tumor efficacy: significant anti-tumor efficacy
[2]; Example 7 100 mg/kg s.c. with fractionated radiotherapy, by day 11
  mortality: 80%
[2]; Example 7 alone, 30 mg/kg dose equivalents of Example 6 s.c. qd x 21 days
  effect on tumor growth inhibition, Example 7 alone: no effect on tumor growth inhibition
[3]
  potentiation of radiation-induced normal tissue toxicity: did not potentiate radiation toxicity
[4]; Example 7 200 mg/kg dose equivalents of Example 6 p.o. qd x 21 d plus RT 2 Gy x 5 d
  effect on tumor growth: no effect on tumor growth as compared to RT alone
[4]; Example 7 300 mg/kg dose equivalents of Example 6 p.o. qd x 21 d plus RT 2 Gy x 5 d
  effect on tumor growth: tumor growth stasis starting on day 8 and continuing throughout the study (day 31)
[4]; Example 7 alone, 200 and 300 mg/kg dose equivalents of Example 6 p.o. qd x 21 d
  effect on tumor growth: no effect on tumor growth as compared to RT alone
[4]; oral administration
  radio-sensitizing effect when administered orally: exerts radio-sensitizing effects when administered orally

## COc1cccc2[nH]c3c4c(c5c(c3c12)C(=O)NC5=O)CCC4 [Example 6, 7-Methoxy-1,2,3,11-tetrahydro-5,11-diaza-benzo[a]trindene-4,6-dione]
Recombinant human PARP
  IC50: < 100 nM
[5]; 30 mg/kg, Example 7 30 mg/kg s.c., fractionated RT study, read-out: Plasma levels of Example 6 at Cmax associated with radio-sensitization efficacy
  Cmax: 5.5 µM
[5]; 100 mg/kg, Example 7 100 mg/kg s.c. dose, fractionated RT study, read-out: Plasma levels at Cmax
  Cmax: 21 µM
[5]; 100 mg/kg, at 100 mg/kg Example 7 s.c., initial study (7.5 Gy schedule), read-out: Plasma levels of Example 6 at Cmax associated with efficacy
  Cmax: 23 µM
